Measurements published in patent US20040096436A1, “Methods for inhibiting protein kinases in cancer cells” (priority 2002, published 2004).

How the values were obtained:
[1] = system: activated PBL; assay: α-tubulin polymerization assay in PBL activated with anti-CD3 and anti-CD28 antibodies; type: cell-based, human; conditions: PBL activated 24 hrs with anti-CD3 and anti-CD28, paclitaxel for one hour
Description: (§1) All primary cells were cultured in RPMI 1640 medium with 20% fetal bovine serum (regular medium) at a density of 2-5×10^6 cell/ml. In some cases, the PBL were stimulated for 24 hours with 1 μg/ml anti-CD3 and anti-CD28 antibodies (Alexis, San Diego, Calif.) prior to immunoblot analysis.
(§2) α-tubulin Polymerization Assay.
After a brief but vigorous vortex, the lysates were incubated at room temperature for 5 minutes, and then centrifuged at 16,000×g for 5 minutes to separate the soluble from polymerized α-tubulin. The supernatant and pellet fractions were resolved on 10-20% pre-cast tris-glycine gels (Novex, San Diego, Calif.) and then subjected to immune blotting with a specific anti-α-tubulin antibody.
The cytosolic (S) monomeric and particulate-bound (P) polymerized forms of α-tubulin were separated by centrifugation from drug-treated cells and assayed by immunoblotting.

[2] = system: CLL cells; assay: α-tubulin polymerization assay in CLL cells; type: cell-based, human; conditions: paclitaxel
Description: The Institutional Review Board of the University of California, San Diego approved this study, and all patients gave informed written consent to participation. Subjects had CLL according to National Cancer Institute (NCI) criteria of any Rai stage. None of the patients were in active chemotherapeutic treatments. Flow cytometric analysis determined that all specimens contained more than 90% CD5+ CD19+ B cells.
Peripheral blood from CLL patients or normal donors was layered on top of Ficoll-Paque Plus (Pharmacia, NJ) and centrifuged at 1200×g for twenty minutes. The enriched peripheral blood mononuclear cells (PBL) were washed several times with Ca++, Mg++-free HBSS.
as §1, §2
For each data point, 2×10^6 of cells were incubated in 2ml of regular medium containing drugs for various periods of time. The cells were then washed twice at room temperature, and resuspended in 50 μl of α-tubulin extraction buffer (1 mM MgCl2, 2 m MEGTA, 0.5% NP-40, 20 mM Tris-HCl, pH=6.8) supplemented with 2 mM phenylmethysulfonyl fluoride, and a protease inhibitor cocktail (Sigma). […]

## CC(=O)O[C@H]1C(=O)[C@@]2(C)[C@H]([C@H](OC(=O)c3ccccc3)[C@]3(O)C[C@H](OC(=O)[C@H](O)[C@@H](NC(=O)c4ccccc4)c4ccccc4)C(C)=C1C3(C)C)[C@]1(OC(C)=O)CO[C@@H]1C[C@@H]2O [paclitaxel]
[1]
  α-tubulin in the particulate fraction after treatment: shift of α-tubulin to the particulate-bound fraction
[2]
  α-tubulin relocalization to the particulate fraction after treatment: nearly complete relocalization of α-tubulin to the particulate fraction
